Laboratory results as given in patent publication US10738080B2, “Inhibitors of beta integrin-G protein alpha subunit binding interactions” (priority 2010, dated 2020).
Entries after “also recorded” stand apart in the source; their conditions may differ. Like-named read-outs stand apart in the source and are kept apart here. No end group written: not given here. *: point of attachment. Myristoyl = CCCCCCCCCCCCCC(=O)*

Test system: human platelets
Assay type: cell-based
Conditions: for integrin outside-in signaling (early phase): human platelets on fibrinogen, 250 μM peptide; for platelet spreading on fibrinogen: human platelets, immobilized fibrinogen
Method: The clots were photographed at various time points. […] Statistical significance was determined using t-test.
Studies using human platelets were approved by institutional review board of University of Illinois at Chicago.
Coverslides were pre-coated with 100 μg/ml fibrinogen and blocked with 5% BSA in PBS. 300 μl αIIbβ3-expressing CHO cells (expressing WT or mutant integrins; 1×10^5/ml) or platelets (1×10^7/ml) suspended in Tyrode's buffer were added to coverslides and incubated at 37° C. for various lengths of time. Cells were fixed with 4% paraformaldehyde (PFA) for 10 minutes and permeabilized with 0.1% Triton X-100 in PBS for 2 minutes. After blocking with 5% BSA for 10 minutes, coverslides were incubated with 0.2 μg/ml mAb 15, or Alexa Fluor-546 conjugated phalloidin. For mouse platelets re-express wild type β3 or the AAA mutant of β3, β3 was immuno-stained with the anti-β3 monoclonal antibody MAb 15 and Alexa Fluor-546 conjugated phalloidin. The slides were scanned with a Zeiss LSM5 10 META confocal microscope as previously described^11

Substance | integrin outside-in signaling (early phase) | platelet spreading on fibrinogen | platelet spreading on fibrinogen (listed as Myr-P5) | thrombin-promoted platelet spreading (0.01 U/ml thrombin)
Myr-EEERA [mP5] | selectively inhibited | abolished; also recorded: inhibited | inhibited | –
Myristoyl-KFEEERA [mP7] | – | abolished | – | –
Myristoyl-KFEEERARAKWDT [mP13] | inhibited | abolished | – | –
Myristoyl-LLARRPTKGIHEY [mSRI] | – | inhibited | – | abolished
